Reference: patent US7943608B2, “Diazepinoes” (Merck Patent GmbH, priority 2005, dated 2011)
pIC50: −log10 of the molar value.

Molecular target: T1, His6-PDK1(Δ1-50) (Homo sapiens, UniProt O15530)
T1 construct: His6 (N)
T1 sequence (O15530 51-556): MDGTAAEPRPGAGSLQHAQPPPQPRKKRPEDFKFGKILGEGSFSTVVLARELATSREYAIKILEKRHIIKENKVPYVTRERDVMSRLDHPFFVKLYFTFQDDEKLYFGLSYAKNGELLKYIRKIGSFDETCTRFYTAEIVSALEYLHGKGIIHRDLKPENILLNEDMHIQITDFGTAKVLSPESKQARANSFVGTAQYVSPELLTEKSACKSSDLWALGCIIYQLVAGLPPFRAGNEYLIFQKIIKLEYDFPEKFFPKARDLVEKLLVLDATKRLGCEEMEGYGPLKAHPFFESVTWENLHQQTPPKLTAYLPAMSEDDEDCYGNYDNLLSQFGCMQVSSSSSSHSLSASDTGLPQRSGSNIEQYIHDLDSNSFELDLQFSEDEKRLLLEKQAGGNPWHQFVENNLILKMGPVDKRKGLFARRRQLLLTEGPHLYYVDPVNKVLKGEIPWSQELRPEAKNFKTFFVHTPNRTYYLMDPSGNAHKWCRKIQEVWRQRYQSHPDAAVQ
Experiment: Inhibition of PDK1 (IC50), 384-well flashplate kinase assay
Format: biochemical
Conditions: 4 μM ATP, 400 nM PDKtide
Experimental: Inhibition of PDK1 (IC50)
The kinase assay can be carried out as a 384-well flashplate assay. 3.4 nM His6-PDK1(Δ1-50), 400 nM PDKtide (biotin-bA-bA-[…]) and 4 μM ATP (with 0.2 μCi of 33P-ATP/well) are incubated at […] for 60 min in a total volume of 50 μl (50 mM TRIS, 10 mM Mg acetate, 0.1% of mercaptoethanol, 0.02% of Brij35, 0.1% of BSA, pH 7.5) with or without test substance (5-10 concentrations). The reaction is stopped using 25 μl of 200 mM EDTA solution, filtered with suction after 30 min at room temperature, and the wells are washed with 3 times 100 μl of 0.9% NaCl solution. The nonspecific content of the kinase reaction (blank) is determined using 100 nM staurosporine. Radioactivity is measured using a Topcount scintillation counter (PerkinElmer, USA). IC50 values are calculated using the RS1 computer program.

[1] = first part of Table 1 (compounds 1-31)
[2] = second part of Table 1 (compounds 32-124)

| pIC50 [2] | SMILES | pIC50 [1] |
| --- | --- | --- |
| – | CCOc1ccc2c(c1)NC(=O)c1cnc(N(C)C3CCN(C)CC3)nc1N2 [Compound 15] | 6.05 |
| – | Cc1ccc2c(c1)NC(=O)c1cnc(NC3CCN(C)CC3)nc1N2 [Compound 19] | 6.22 |
| 5.47 | Cc1ccc2c(c1C)Nc1nc(NC3CCN(C)CC3)ncc1C(=O)N2 [Compound 66] | – |
| – | Cc1ccc2c(c1)NC(=O)c1cnc(N(C)C3CCN(C)CC3)nc1N2 [Compound 14] | 6.40 |
| – | Cc1ccc2c(c1)NC(=O)c1cnc(N(C)C3CCN(C)CC3)nc1N2 [Compound 6, 8-Methyl-3-[methyl(1-methylpiperidin-4-yl)amino]-5,10-dihydro-2,4,5,10-tetraazadibenzo[a,d]cyclohepten-11-one] | 5.96 |
| 5.82 | CCN1CCC(Nc2ncc3c(n2)Nc2ccc(C)cc2NC3=O)CC1 [Compound 45] | – |
| – | CCOc1ccc2c(c1)NC(=O)c1cnc(NC3CCN(C)CC3)nc1N2 [Compound 21] | 6.00 |
| – | CN1CCC(N(C)c2ncc3c(n2)Nc2ccc(C(F)(F)F)cc2NC3=O)CC1 [Compound 17] | 5.80 |
| 5.62 | Cc1ccc2c(c1)NC(=O)c1cnc(NC3CCN(C(C)C)CC3)nc1N2 [Compound 53] | – |
| – | CN1CCC(N(C)c2ncc3c(n2)Nc2ccc(C(C)(C)C)cc2NC3=O)CC1 [Compound 16] | 6.40 |
| 5.29 | CCOc1ccc2c(c1)NC(=O)c1cnc(NC3CCN(C(C)C)CC3)nc1N2 [Compound 49] | – |
| 5.31 | CCN1CCC(Nc2ncc3c(n2)Nc2cc(Cl)c(Cl)cc2NC3=O)CC1 [Compound 39] | – |
| 5.74 | CN1CCC(Nc2ncc3c(n2)Nc2ccc(C(F)(F)F)cc2NC3=O)CC1 [Compound 62] | – |
| 5.70 | CCOc1ccc2c(c1)NC(=O)c1cnc(NC3CCN(CC)CC3)nc1N2 [Compound 43] | – |
| 5.85 | CCN1CCC(Nc2ncc3c(n2)Nc2ccc(C(C)(C)C)cc2NC3=O)CC1 [Compound 40] | – |
| – | CN1CCC(Nc2ncc3c(n2)Nc2cc(C(F)(F)F)ccc2NC3=O)CC1 [Compound 11] | 5.41 |
| 6.28 | CCOc1ccc2c(c1)NC(=O)c1cnc(NC3CCN(C)CC3)nc1N2 [Compound 65] | – |
| 5.82 | CN1CCC(Nc2ncc3c(n2)Nc2ccc(C#N)cc2NC3=O)CC1 [Compound 56] | – |
| – | Cc1ccc2c(c1)NC(=O)c1cnc(NC3CCN(C)CC3)nc1N2 [Compound 12] | 6.05 |
| 5.43 | Cc1cc(C)c2c(c1)NC(=O)c1cnc(NC3CCN(C)CC3)nc1N2 [Compound 34] | – |
| 6.49 | Cc1cc2c(cc1C)Nc1nc(N(C)C3CCNCC3)ncc1C(=O)N2 [Compound 74] | – |
| – | CN1CCC(N(C)c2ncc3c(n2)Nc2ccccc2NC3=O)CC1 [Compound 1] | 5.64 |

| pIC50 [2] | SMILES | pIC50 [1] |
| --- | --- | --- |
| – | Cc1cc2c(cc1C)Nc1nc(N(C)C3CCN(C)CC3)ncc1C(=O)N2 [Compound 3, 7,8-Dimethyl-3-[methyl(1-methylpiperidin-4-yl)amino]-5,10-dihydro-2,4,5,10-tetraazadibenzo[a,d]cyclohepten-11-one] | 6.00 |
| 6.19 | Cc1cc2c(cc1C)Nc1nc(N(C)C3CCN(C)CC3)ncc1C(=O)N2 [Compound 32] | – |
| 5.44 | CC(C)N1CCC(Nc2ncc3c(n2)Nc2ccc(F)cc2NC3=O)CC1 [Compound 52] | – |
| – | Cc1ccc2c(c1)NC(=O)c1cnc(N(C(C)C)C3CCN(C)CC3)nc1N2 [Compound 26] | 5.21 |
| 5.92 | CN1CCC(Nc2ncc3c(n2)Nc2cc(Cl)c(Cl)cc2NC3=O)CC1 [Compound 36] | – |
| 5.70 | Cc1cc2c(cc1C)Nc1nc(NC3CCN(C(C)C)CC3)ncc1C(=O)N2 [Compound 57] | – |
| 6.04 | CCN1CCC(Nc2ncc3c(n2)Nc2ccc(C(C)C)cc2NC3=O)CC1 [Compound 44] | – |
| 5.15 | CCN1CCC(Nc2ncc3c(n2)Nc2c(C)cccc2NC3=O)CC1 [Compound 54] | – |
| – | CN1CCC(N(C)c2ncc3c(n2)Nc2ccc(Cl)cc2NC3=O)CC1 [Compound 4, 8-Chloro-3-[methyl(1-methylpiperidin-4-yl)amino]-5,10-dihydro-2,4,5,10-tetraazadibenzo[a,d]cyclohepten-11-one] | 5.85 |
| 6.02 | Cc1noc(C)c1NC(=O)Nc1ccc2c(c1)Nc1nc(N(C)C3CCN(C)CC3)ncc1C(=O)N2 [Compound 95] | – |
| – | CN1CCC(N(C)c2ncc3c(n2)Nc2cc(Cl)ccc2NC3=O)CC1 [Compound 10] | 5.77 |
| 5.82 | CCN1CCC(Nc2ncc3c(n2)Nc2cc(C)c(C)cc2NC3=O)CC1 [Compound 47] | – |
| – | Cc1cc2c(cc1C)Nc1nc(NC3CCN(C)CC3)ncc1C(=O)N2 [Compound 8, 7,8-Dimethyl-3-(1-methylpiperidin-4-ylamino)-5,10-dihydro-2,4,5,10-tetraazadibenzo[a,d]cyclohepten-11-one] | 5.60 |
| 6.80 | CN1CCC(N(C)c2ncc3c(n2)Nc2cc(NC(=O)Nc4ccsc4)ccc2NC3=O)CC1 [Compound 94] | – |
| – | Cc1ccc2c(c1)Nc1nc(NC3CCN(C)CC3)ncc1C(=O)N2 [Compound 9, 7-Methyl-3-(1-methylpiperidin-4-ylamino)-5,10-dihydro-2,4,56,10-tetraazadibenzo[a,d]cyclohepten-11-one] | 5.32 |
| 5.54 | CCN1CCC(Nc2ncc3c(n2)Nc2ccc(C(F)(F)F)cc2NC3=O)CC1 [Compound 60] | – |
| 5.19 | CC(C)N1CCC(Nc2ncc3c(n2)Nc2ccc(C(F)(F)F)cc2NC3=O)CC1 [Compound 61] | – |
| – | Cc1ccc2c(c1C)Nc1nc(N(C)C3CCN(C)CC3)ncc1C(=O)N2 [Compound 22] | 5.59 |
| 5.64 | CCN1CCC(Nc2ncc3c(n2)Nc2ccc(C#N)cc2NC3=O)CC1 [Compound 55] | – |
| 5.09 | Cc1cc2c(cc1C)Nc1nc(N(C)C3CCN(C(=O)CCN(C)C)CC3)ncc1C(=O)N2 [Compound 72] | – |
| – | CN1CCC(N(C)c2ncc3c(n2)Nc2ccc(-c4ccsc4)cc2NC3=O)CC1 [Compound 25] | 6.00 |
| 5.62 | Cc1cccc2c1Nc1nc(NC3CCN(C)CC3)ncc1C(=O)N2 [Compound 46] | – |

| SMILES | pIC50 [2] | pIC50 [1] |
| --- | --- | --- |
| CN1CCC(N(C)c2ncc3c(n2)Nc2c(NC(=O)NC4CCCCC4)cccc2NC3=O)CC1 [Compound 93] | 5.46 | – |
| Cc1noc(C)c1NC(=O)Nc1ccc2c(c1)NC(=O)c1cnc(N(C)C3CCN(C)CC3)nc1N2 [Compound 100] | 6.66 | – |
| CCNC(=O)Nc1ccc2c(c1)Nc1nc(N(C)C3CCN(C)CC3)ncc1C(=O)N2 [Compound 76] | 5.89 | – |
| CN1CCC(N(C)c2ncc3c(n2)Nc2ccc(NC(=O)NC4CCCC4)cc2NC3=O)CC1 [Compound 78] | 6.82 | – |
| CCCNC(=O)Nc1ccc2c(c1)Nc1nc(N(C)C3CCN(C)CC3)ncc1C(=O)N2 [Compound 81] | 6.38 | – |
| CN1CCC(N(C)c2ncc3c(n2)Nc2cc(N)ccc2NC3=O)CC1 [Compound 68] | 6.29 | – |
| CN1CCC(N(C)c2ncc3c(n2)Nc2ccc(NC(=O)NC4CCCCC4)cc2NC3=O)CC1 [Compound 88] | 6.82 | – |
| CN1CCC(N(C)c2ncc3c(n2)Nc2cc(NC(=O)Nc4cccs4)ccc2NC3=O)CC1 [Compound 90] | 6.54 | – |
| CC(C)NC(=O)Nc1ccc2c(c1)Nc1nc(N(C)C3CCN(C)CC3)ncc1C(=O)N2 [Compound 75] | 6.02 | – |
| CN1CCC(N(C)c2ncc3c(n2)Nc2ccc(NC(=O)Nc4ccsc4)cc2NC3=O)CC1 [Compound 99] | 6.92 | – |
| CN1CCC(N(C)c2ncc3c(n2)Nc2c(NC(=O)NC(C)(C)C)cccc2NC3=O)CC1 [Compound 84] | 5.26 | – |
| CN1CCC(N(C)c2ncc3c(n2)Nc2ccc(C(F)(F)F)cc2NC3=O)CC1 [Compound 67] | 5.89 | – |
| CCCNC(=O)Nc1ccc2c(c1)NC(=O)c1cnc(N(C)C3CCN(C)CC3)nc1N2 [Compound 86] | 6.55 | – |
| CCN(c1ncc2c(n1)Nc1ccc(F)cc1NC2=O)C1CCN(C)CC1 [Compound 59] | 5.62 | – |
| Cc1cc2c(cc1C)Nc1nc(N(C)C3CCN(CCN(C)C)CC3)ncc1C(=O)N2 [Compound 73] | 5.41 | – |
| CCNC(=O)Nc1ccc2c(c1)NC(=O)c1cnc(N(C)C3CCN(C)CC3)nc1N2 [Compound 85] | 6.55 | – |
| CN1CCC(N(C)c2ncc3c(n2)Nc2c(NC(=O)Nc4ccsc4)cccc2NC3=O)CC1 [Compound 101] | 6.47 | – |
| CN1CCC(N(C)c2ncc3c(n2)Nc2cc(Cl)c(Cl)cc2NC3=O)CC1 [Compound 35] | 5.43 | – |
| Cc1noc(C)c1NC(=O)Nc1cccc2c1Nc1nc(N(C)C3CCN(C)CC3)ncc1C(=O)N2 [Compound 102] | 5.47 | – |
| CN(c1ncc2c(n1)Nc1ccc(C(C)(C)C)cc1NC2=O)C1CCNCC1 [Compound 71] | 6.37 | – |
| CN1CCC(N(C)c2ncc3c(n2)Nc2cc(NC(=O)NC4CCCCC4)ccc2NC3=O)CC1 [Compound 82] | 6.12 | – |
| CCN(c1ncc2c(n1)Nc1ccc(C(C)C)cc1NC2=O)C1CCN(C)CC1 [Compound 48] | 5.52 | – |
